The results in this text go back to patent US20070049593A1 (priority 2004, published 2007).

The assay addresses T1, HCV polymerase (Hepatitis C virus genotype 1b, UniProt P26663).
T1 construct: a region encoding NS5B (J Virol 1991 March, 65(3), 1105-13, 544 amino acids after deletion of 47 amino acids on the C-terminal); 6xHis (C); made in house; host or cells: Escherichia coli
The assay can be described thus: biochemical. Details: species or system HCV BK strain. The procedure, abridged:
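Recombinant HCV BK-strain NS5B (C-terminal 47 aa deleted, His6-tagged, E. coli), 0.5 μg/ml, run with 5 μg/ml in vitro-transcribed RNA template (polyU/3′X), ATP/GTP/CTP 50 μM, UTP 2 μM plus [3H]UTP, pH 7.5, 25° C, 90 min. TCA-precipitated RNA counted by scintillation; IC50 from activity with vs without compound.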

Molecules are shown by their SMILES. Counter-ions that a name gives are not always drawn. Like-named read-outs stand apart in the source and are kept apart here.

T1 sequence (P26663 2420-2963): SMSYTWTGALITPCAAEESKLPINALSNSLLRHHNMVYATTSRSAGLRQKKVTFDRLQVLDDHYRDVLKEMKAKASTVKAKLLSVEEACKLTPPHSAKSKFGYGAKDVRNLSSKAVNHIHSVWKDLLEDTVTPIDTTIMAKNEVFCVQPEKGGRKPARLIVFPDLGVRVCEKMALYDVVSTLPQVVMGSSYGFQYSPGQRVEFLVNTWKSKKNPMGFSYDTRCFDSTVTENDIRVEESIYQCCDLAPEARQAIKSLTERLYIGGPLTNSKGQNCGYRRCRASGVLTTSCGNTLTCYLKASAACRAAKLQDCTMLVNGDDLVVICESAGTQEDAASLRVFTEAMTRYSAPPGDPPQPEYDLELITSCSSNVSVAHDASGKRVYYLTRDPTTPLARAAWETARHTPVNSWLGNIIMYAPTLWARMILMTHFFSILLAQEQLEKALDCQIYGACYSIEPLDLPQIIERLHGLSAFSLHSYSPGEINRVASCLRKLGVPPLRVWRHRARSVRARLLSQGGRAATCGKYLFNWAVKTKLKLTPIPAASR

What is called IC50 is the concentration that gives 50% inhibition. The molecule `CCN1CCCN(CCN2CCn3c(c(C4CCCCC4)c4ccc(C(=O)O)cc43)-c3ccccc32)CC1` [Example 1-286, 13-cyclohexyl-5-[2-(4-ethyl-1,4-diazepan-1-yl)ethyl]-6,7-dihydro-5H-benzo[5,6][1,4]diazepino[7,1-a]indole-10-carboxylic acid trihydrochloride] returned a concentration for half-maximal inhibition (IC50) of less than 0.1 µM.
The same measure, in the same setting: with `Cc1ccc2c(c1)N(CCC1CCCCN1C)CCn1c-2c(C2CCCCC2)c2ccc(C(=O)O)cc21` (stereo not shown) [Example 1-287, 13-cyclohexyl-3-methyl-5-[2-(1-methylpiperidin-2-yl)ethyl]-6,7-dihydro-5H-benzo[5,6][1,4]diazepino[7,1-a]indole-10-carboxylic acid dihydrochloride] the figure was less than 0.1 µM.
Still for that read-out and setting: with `CCN1CCCCC1CCN1CCn2c(c(C3CCCCC3)c3ccc(C(=O)O)cc32)-c2ccc(C)cc21` (stereo not shown) [Example 1-288, 13-cyclohexyl-5-[2-(1-ethylpiperidin-2-yl)ethyl]-3-methyl-6,7-dihydro-5H-benzo[5,6][1,4]diazepino[7,1-a]indole-10-carboxylic acid dihydrochloride] the figure was less than 0.1 µM; with `CSc1ccc2c(c1)N(CCN1CCCCCC1)CCn1c-2c(C2CCCCC2)c2ccc(C(=O)O)cc21` [Example 1-289, 5-[2-(azepan-1-yl)ethyl]-13-cyclohexyl-3-methylsulfanyl-6,7-dihydro-5H-benzo[5,6][1,4]diazepino[7,1-a]indole-10-carboxylic acid dihydrochloride], less than 0.1 µM.
Still for that read-out and setting: with `CCC1CN(CCN2CCn3c(c(C4CCCCC4)c4ccc(C(=O)O)cc43)-c3ccc(Cl)cc32)CCO1` (stereo not shown) [Example 1-290, 3-chloro-13-cyclohexyl-5-[2-(2-ethylmorpholin-4-yl)ethyl]-6,7-dihydro-5H-benzo[5,6][1,4]diazepino[7,1-a]indole-10-carboxylic acid dihydrochloride] the figure was less than 0.1 µM.
The molecule `CCC1CN(CCN2CCn3c(c(C4CCCCC4)c4ccc(C(=O)O)cc43)-c3ccc(C)cc32)CCO1` (stereo not shown) [Example 1-291, 13-cyclohexyl-5-[2-(2-ethylmorpholin-4-yl)ethyl]-3-methyl-6,7-dihydro-5H-benzo[5,6][1,4]diazepino[7,1-a]indole-10-carboxylic acid dihydrochloride] showed a concentration for half-maximal inhibition (IC50) of less than 0.1 µM.
Same read-out and setting: in the case of `CCC1COCCN1CCN1CCn2c(c(C3CCCCC3)c3ccc(C(=O)O)cc32)-c2ccc(C)cc21` (stereo not shown) [Example 1-292, 13-cyclohexyl-5-[2-(3-ethylmorpholin-4-yl)ethyl]-3-methyl-6,7-dihydro-5H-benzo[5,6][1,4]diazepino[7,1-a]indole-10-carboxylic acid dihydrochloride] it was less than 0.1 µM; in that of `COCC1CCCN(CCN2CCn3c(c(C4CCCCC4)c4ccc(C(=O)O)cc43)-c3ccc(Cl)cc32)C1` (stereo not shown) [Example 1-293, 3-chloro-13-cyclohexyl-5-[2-(3-methoxymethylpiperidin-1-yl)ethyl]-6,7-dihydro-5H-benzo[5,6][1,4]diazepino[7,1-a]indole-10-carboxylic acid dihydrochloride], less than 0.1 µM.
`COCC1CCCN(CCN2CCn3c(c(C4CCCCC4)c4ccc(C(=O)O)cc43)-c3ccc(C)cc32)C1` (stereo not shown) [Example 1-294, 13-cyclohexyl-5-[2-(3-methoxymethylpiperidin-1-yl)ethyl]-3-methyl-6,7-dihydro-5H-benzo[5,6][1,4]diazepino[7,1-a]indole-10-carboxylic acid dihydrochloride]: the IC50 (25° C., 90 min, [5,6-3H]UTP incorporation into RNA, read-out: HCV polymerase inhibitory activity IC50) was less than 0.1 µM.
Take `CCc1ccc2c(c1)N(CCN1CCCCC1)CCn1c-2c(C2CCCCC2)c2ccc(C(=O)O)cc21` [Example 1-295, 13-cyclohexyl-3-ethyl-5-[2-(piperidin-1-yl)ethyl]-6,7-dihydro-5H-benzo[5,6][1,4]diazepino[7,1-a]indole-10-carboxylic acid dihydrochloride]: the IC50 is less than 0.1 µM.
